Columns and labels:
[1] = tested on: cell migration induced by MCP-1 in human promonocytic leukemia cell line, THP-1; test: Activity for inhibiting cell migration induced by MCP-1 (THP-1 cells); assay type: cell-based; conditions: 20 ng/ml recombinant human MCP-1, 37° C., two hours
Experimental: The cell migration induced by the monocyte chemoattractant protein MCP-1/MCAF was measured for the purpose of investigating the activity of the tested compounds shown in Table 1 in inhibiting cell migration by the following manner in accordance with the method of Falk et al. (J. Immunol. Methods, 33, 239-247 (1980)) using human promonocytic leukemia cell line, THP-1 (ATCC TIB203). That is, THP-1 cells diluted to 2×10^6 /ml by 10% fetal calf serum: FCS-containing RPMI-1640 medium (made by Flow Laboratories) were added to the upper chamber (200 μl) of the 96-well microchemotaxis chamber (made by Neuroprobe Inc.) while recombinant human MCP-1 (made by Peprotech Co.) diluted by the same medium to a final concentration of 20 ng/ml was added to the bottom chamber (35 μl). A polycarbonate filter (pore size of 5 μm, PVP-free, made by Neuroprobe Co) was affixed between the two. Incubation was performed at 37° C. in the presence of 5% CO2 for two hours. The filter was taken out, then the cells migrating to the bottom surface of the filter were fixed and stained by a Diff Quick solution (made by International Reagents Co.), then were measured by a plate reader (made by Molecular Device Co.) at a measurement wavelength of 550 nm. The mean value of three wells was determined and used as the indicator of the number of the migrating cells. At this time, the text compounds were added at various concentrations along with the THP-1 cells to the top chambers and the activity in inhibiting cell migration was determined. The percent of inhibition of cell migration was found by dividing the {(number of migrating cells caused by the MCP-1 added to the bottom chamber in the case of the test compound being added to the top chamber)--(number of migrating cells in the case of no test compound being added to the top chamber and no MCP-1 being added to the bottom chamber)} by the {(number of migrating cells caused by the MCP-1 added to the bottom chamber in the case of no test compound being added to the top chamber)--(number of migrating cells in the case of no test compound being added to the top chamber and no MCP-1 being added to the bottom chamber)}.

rat platelet = test: Rat platelet aggregation inhibiting activity; assay type: cell-based; conditions: rat platelet rich plasma; adenosine 2-phosphate induced; 37° C., one minute
Experimental: Wistar rats (males, approximately 400 g) were made to fast for one day, the entire blood was removed from the chest artery under anesthesia by ether, then a 1/10 volume of 3.8% aqueous solution of sodium citrate was added and immediately mixed in. The solution was centrifuged at 1000 rpm for 10 minutes, then the upper layer was used as the platelet rich plasma. The lower layer was centrifuged at 3000 rpm for 10 minutes and the upper layer of that was used as the platelet poor plasma. The platelet rich plasma was diluted by the platelet poor plasma to give a number of platelets of 3.5×10^8 /mm^3. This was used for the measurement. Note that the measurement of the platelets was performed using an automatic blood cell counter MEK-4500 (Nihon Koden). The measurement of the platelet aggregation was performed by measuring the turbidity using an NBS HEMA TRACER 801 (M.C. Medical). 90 μl of the platelet solution was inserted in a cuvette, then 5 μl each of the test compounds was added to give the target final concentration. The result was heated for one minute at 37° C., then 5 μl of a 100 μM aqueous solution of adenosine 2-phosphate (M.C. Medical) was added to induce platelet aggregation. The aggregation inhibiting activity was found from the following formula.
Aggregation inhibiting rate (%)={1-(maximum change of turbidity at time of
addition of drug)/(maximum change of turbidity at time of non-addition of
Further, the concentration of the compound giving 50% inhibition was used as the IC50.

Row | Compound | IC50 ([1]; Homo sapiens, THP-1, 2 h) [nM] | IC50 [1] [nM] | further results
1 | CCCCC[C@H](O)/C=C/[C@@H]1C(SCCCCCC(=O)OC)=C(OC(=O)[C@H](Cc2ccccc2)NC(=O)OCc2ccccc2)C[C@H]1O | 0.22 |  | 
2 | CCCCC(C)(O)C/C=C/[C@@H]1C(SCCCCCC(=O)OC)=C(OC(=O)CCC)C[C@H]1O (some centres unmarked) | 1.7 |  | 
3 | CCCC(=O)OC1=C(SCCCCCC(=O)OC)[C@@H](/C=C/C(O)C2CCCCC2)[C@H](O)C1 (some centres unmarked) | 100 |  | 
4 | CCCC(=O)OC1=C(SCCCCCC(=O)OC)[C@@H](/C=C/C(O)CCc2ccccc2)[C@H](O)C1 (some centres unmarked) | 8.5 |  | 
5 | CCCC(=O)OC1=C(SCCCCCC(=O)OC)[C@@H](/C=C/[C@@H](O)CCOCC)[C@H](O)C1 | 120 |  | 
6 | CCCCCC(O)CC[C@@H]1C(SCCCCCC(=O)OC)=C(OC(=O)CCC)C[C@H]1O (some centres unmarked) | 0.14 |  | 
7 | CCCC(=O)OC1=C(SCCCCCC(=O)OC)[C@@H](/C=C/C(O)c2ccccc2)[C@H](O)C1 (some centres unmarked) | > 1000 |  | 
8 | CCCC(=O)OC1=C(SCCCCCC(=O)OC)[C@@H](/C=C/[C@@H](O)Cc2ccccc2)[C@H](O)C1 | 1.1 |  | 
9 | CCCCC(C)C[C@H](O)/C=C/[C@@H]1C(SCCC/C=C/C(=O)OC)=C(OC(=O)CCC)C[C@H]1O (some centres unmarked) | 6 |  | 
10 | CCCCC(C)C[C@H](O)/C=C/[C@@H]1C(SCCCCCC(=O)OC)=C(OC(C)=O)C[C@H]1O (some centres unmarked) |  |  | IC50 (rat platelet): 52 nM
11 | CCCCC(C)C[C@H](O)/C=C/[C@@H]1C(SCCCCCC(=O)OC)=C(OC(=O)C(C)C)C[C@H]1O (some centres unmarked) |  |  | IC50 (rat platelet): 500 nM
12 | CCCCC(C)C[C@H](O)/C=C/[C@@H]1C(SCCCCCC(=O)OC)=C(OC(=O)C(C)(C)C)C[C@H]1O (some centres unmarked) |  |  | IC50 (rat platelet): 1280 nM
13 | CCCCOC(=O)CCCCCSC1=C(OC(=O)CCC)C[C@@H](O)[C@@H]1/C=C/[C@@H](O)CC(C)CCCC (some centres unmarked) |  |  | IC50 (rat platelet): 221 nM
14 | CCCCC[C@H](O)/C=C/[C@@H]1C(SCCCCCC(=O)OC)=C(OC(=O)CCC)C[C@H]1O |  |  | IC50 (rat platelet): 629 nM
15 | CCCC(=O)OC1=C(SCCCCCC(=O)OC)[C@@H](/C=C/C(O)CC(C)C)[C@H](O)C1 (some centres unmarked) |  |  | IC50 (rat platelet): 380 nM
16 | CCCC(=O)OC1=C(SCCCCCC(=O)OC)[C@@H](/C=C/[C@@H](O)C2CCCC2)[C@H](O)C1 [drawing 121] | 0.51 |  | 
17 | CCCC(=O)OC1=C(SCCCCCC(=O)OC)[C@@H](/C=C/[C@@H](O)C2CCCCC2)[C@H](O)C1 [drawing 123] | 2.5 |  | 
18 | CCCCC[C@H](O)/C=C/[C@@H]1C(SCCCCCC(=O)O)=C(OC(=O)CCC)C[C@H]1O [drawing 126] | 0.81 |  | 
19 | CCCCC(C)C[C@H](O)/C=C/[C@@H]1C(SCCCCCC(=O)OC)=C(OC(=O)c2ccccc2)C[C@H]1O (some centres unmarked) [drawing 129] | 810 |  | 
20 | CCCC(=O)OC1=C(SCCCCCC(=O)OC)[C@@H](/C=C/C(O)Cc2ccccc2)[C@H](O)C1 (some centres unmarked) [drawing 131] | 8.3 |  | 
21 | CCCC(=O)OC1=C(SCCCCCC(=O)OC)[C@@H](/C=C/C(O)C(C)(C)c2ccccc2)[C@H](O)C1 (some centres unmarked) [drawing 135] |  | 100 | 
22 | CCCC(=O)OC1=C(SCCCCCC(=O)OC)[C@@H](/C=C/C(O)C(C)(C)c2ccccc2)[C@H](O)C1 (some centres unmarked) [drawing 136] |  | 13 | 
23 | CCCC(=O)OC1=C(SCCCCCC(=O)OC)[C@@H](/C=C/C(O)[C@H](C)c2ccccc2)[C@H](O)C1 (some centres unmarked) [drawing 137] | 3 |  | 
24 | CCCC(=O)OC1=C(SCCCCCC(=O)OC)[C@@H](/C=C/C(O)C(C)c2ccccc2)[C@H](O)C1 (some centres unmarked) [drawing 139] |  | 6 | 
25 | CCCC(=O)OC1=C(SCCCCCC(=O)OC)[C@@H](/C=C/C(O)C(C)c2ccccc2)[C@H](O)C1 (some centres unmarked) [drawing 140] |  | 0.021 | 

Row | Compound | IC50 ([1]; Homo sapiens, THP-1, 2 h) [nM] | IC50 [1] [nM] | further results
26 | CCCCC(C)C[C@H](O)/C=C/[C@@H]1C(SCCCOCC(=O)OC)=C(OC(=O)CCC)C[C@H]1O (some centres unmarked) [drawing 141] | 2.1 |  | 
27 | CCCC(=O)OC1=C(SCCCCCC(=O)OC)[C@@H](/C=C/C(O)C(c2ccccc2)c2ccccc2)[C@H](O)C1 (some centres unmarked) [drawing 142] |  | 1300 | 
28 | CCCC(=O)OC1=C(SCCCCCC(=O)OC)[C@@H](/C=C/C(O)C(c2ccccc2)c2ccccc2)[C@H](O)C1 (some centres unmarked) [drawing 143] |  | > 5000 | 
29 | CCCC(=O)OC1=C(SCCCCCC(=O)OC)[C@@H](/C=C/C(O)CCCc2ccccc2)[C@H](O)C1 (some centres unmarked) [drawing 146] |  | 300 | 
30 | CCCC(=O)OC1=C(SCCCCCC(=O)OC)[C@@H](/C=C/C(O)CCCc2ccccc2)[C@H](O)C1 (some centres unmarked) [drawing 147] |  | 4.3 | 
31 | CCCC(=O)OC1=C(SCCCCCC(=O)OC)[C@@H](/C=C/C(O)Cc2ccc(C)cc2)[C@H](O)C1 (some centres unmarked) [drawing 148] |  | > 10000 | 
32 | CCCC(=O)OC1=C(SCCCCCC(=O)OC)[C@@H](/C=C/C(O)Cc2ccc(C)cc2)[C@H](O)C1 (some centres unmarked) [drawing 149] |  | 100 | 
33 | CCCC(=O)OC1=C(SCCCCCC(=O)OC)[C@@H](/C=C/C(O)Cc2ccsc2)[C@H](O)C1 (some centres unmarked) [drawing 151] |  | 90 | 
34 | CCCC(=O)OC1=C(SCCCCCC(=O)OC)[C@@H](/C=C/C(O)Cc2ccsc2)[C@H](O)C1 (some centres unmarked) [drawing 152] |  | 0.08 | 
35 | CCCC(=O)OC1=C(SCCCCCC(=O)OC)[C@@H](/C=C/C(O)Cc2cccc(C)c2)[C@H](O)C1 (some centres unmarked) [drawing 153] |  | 600 | 
36 | CCCC(=O)OC1=C(SCCCCCC(=O)OC)[C@@H](/C=C/C(O)Cc2cccc(C)c2)[C@H](O)C1 (some centres unmarked) [drawing 154] |  | 1.2 | 
37 | CCCC(=O)OC1=C(SCCCCCC(=O)OC)[C@@H](/C=C/C(O)Cc2cccc(Cl)c2)[C@H](O)C1 (some centres unmarked) [drawing 155] |  | 8 | 
38 | CCCC(=O)OC1=C(SCCCCCC(=O)OC)[C@@H](/C=C/C(O)Cc2cccc(Cl)c2)[C@H](O)C1 (some centres unmarked) [drawing 156] |  | 0.4 | 
39 | CCCC(=O)OC1=C(SCCCCCC(=O)OC)[C@@H](/C=C/C(O)Cc2cccc(OC)c2)[C@H](O)C1 (some centres unmarked) [drawing 157] |  | 33 | 
40 | CCCC(=O)OC1=C(SCCCCCC(=O)OC)[C@@H](/C=C/C(O)Cc2cccc(OC)c2)[C@H](O)C1 (some centres unmarked) [drawing 158] |  | 2.3 | 
41 | CCCC(=O)OC1=C(SCCCCCC(=O)OC)[C@@H](/C=C/C(O)Cc2cccc(C(=O)OC)c2)[C@H](O)C1 (some centres unmarked) [drawing 159] |  | 230 | 
42 | CCCC(=O)OC1=C(SCCCCCC(=O)OC)[C@@H](/C=C/C(O)Cc2cccc(C(=O)OC)c2)[C@H](O)C1 (some centres unmarked) [drawing 160] |  | 2.3 | 
43 | CCCC(=O)OC1=C(SCCCCCC(=O)OC)[C@@H](/C=C/C(O)Cc2ccccc2C)[C@H](O)C1 (some centres unmarked) [drawing 161] |  | 190 | 
44 | CCCC(=O)OC1=C(SCCCCCC(=O)OC)[C@@H](/C=C/C(O)Cc2ccccc2C)[C@H](O)C1 (some centres unmarked) [drawing 162] |  | 4.4 | 
45 | CCCC(=O)OC1=C(SCCCCCC(=O)OC)[C@@H](/C=C/C(O)Cc2ccc([N+](=O)[O-])cc2)[C@H](O)C1 (some centres unmarked) [drawing 163] |  | < 100 | 
46 | CCCC(=O)OC1=C(SCCCCCC(=O)OC)[C@@H](/C=C/C(O)Cc2ccc([N+](=O)[O-])cc2)[C@H](O)C1 (some centres unmarked) [drawing 164] |  | 3.6 | 
47 | CCCC(=O)OC1=C(SCCCCCC(=O)OC)[C@@H](/C=C/C(O)Cc2ccc(Cl)cc2)[C@H](O)C1 (some centres unmarked) [drawing 165] |  | < 100 | 
48 | CCCC(=O)OC1=C(SCCCCCC(=O)OC)[C@@H](/C=C/C(O)Cc2ccc(Cl)cc2)[C@H](O)C1 (some centres unmarked) [drawing 166] |  | < 1 | 
49 | CCCC(=O)OC1=C(CCCCCCC(=O)OC)[C@@H](/C=C/C(O)Cc2ccccc2)[C@H](O)C1 (some centres unmarked) [drawing 167] |  | 4000 | 
50 | CCCC(=O)OC1=C(CCCCCCC(=O)OC)[C@@H](/C=C/C(O)Cc2ccccc2)[C@H](O)C1 (some centres unmarked) [drawing 168] |  | 5 | 

Reference: patent US5731452A, “7-thiaprostaglandins and method of production thereof” (Teijin Limited, priority 1994, dated 1998)
